In PMC5421785, “Citrullination only infrequently impacts peptide binding to HLA class II MHC” (PLoS ONE, 2017):
Where two headings read alike, the source gives them in different places. Square brackets hold non-standard residues; d marks the D form. Ends that are not written are not given here. Peptide text beside a SMILES is read from it. Cit = NC(=O)NCCC[C@H](N)C(=O)O

Tests used:
HLA-DRB1*04:01 = biological target: T1, HLA-DRB1*04:01 (Homo sapiens, UniProt P01903+P01911, A100K/A169T/F76Y/I96L/K127E/L162R/M171V/N62H/P40V/Q125Y/R42H/S133A/S149N/S66Y/V115G/V209L/W38E); test: HLA class II peptide binding, inhibition of radiolabeled peptide binding to purified MHC; settings: for DRB1*04:01 binding capacity, WT/cit ratio: ratio of WT IC50 to Cit IC50
T1 construct: EBV transformed homozygous cell lines were used as sources of MHC molecules; endogenous in cells; host or cells: EBV transformed homozygous cell lines

HLA-DRB1*01:01 = biological target: T2, HLA-DRB1*01:01 (Homo sapiens, UniProt P01903+P01911, A100R/D57E/F55L/F60I/F76Y/I96L/L162R/M171V/P40L/Q125E/R42F/V115G/Y59C); test: as above; settings: for DRB1*01:01 binding capacity, WT/cit ratio: ratio of WT IC50 to Cit IC50
T2 construct: EBV transformed homozygous cell lines were used as sources of MHC molecules; endogenous in cells; host or cells: EBV transformed homozygous cell lines

[1] = citrullinated 15-mer (X), purified MHC, inhibition of radiolabeled peptide binding, dash = IC50 >40,000 nM, read-out: DRB1*04:01 binding capacity, Cit peptide (IC50 nM)
[2] = citrullinated 15-mer (X), purified MHC, inhibition of radiolabeled peptide binding, dash = IC50 >40,000 nM, read-out: DRB1*01:01 binding capacity, Cit peptide (IC50 nM)
[3] = citrullinated 15-mer peptide (X = citrulline), purified HLA-DRB1*04:01, read-out: DRB1*04:01 binding capacity, Cit peptide (IC50 nM)
[4] = citrullinated 15-mer peptide (X = citrulline), purified HLA-DRB1*01:01, read-out: DRB1*01:01 binding capacity, Cit peptide (IC50 nM)
[5] = >1 = citrullination increases binding
[6] = wild-type (unmodified Arg) 15-mer peptide, purified HLA-DRB1*04:01, read-out: DRB1*04:01 binding capacity, WT peptide (IC50 nM)
[7] = wild-type (unmodified Arg) 15-mer peptide, purified HLA-DRB1*01:01, read-out: DRB1*01:01 binding capacity, WT peptide (IC50 nM)
[8] = read-out: DRB1*04:01 binding capacity, WT peptide (IC50 nM)
[9] = read-out: DRB1*01:01 binding capacity, WT peptide (IC50 nM)
[10] = citrullinated peptide as listed (X at Cit position), read-out: DRB1*04:01 binding capacity Cit peptide (IC50 nM)
[11] = citrullinated peptide as listed (X at Cit position), read-out: DRB1*01:01 binding capacity Cit peptide (IC50 nM)

CC(C)C[C@H](NC(=O)[C@H](C)NC(=O)[C@H](CC(=O)O)NC(=O)[C@H](CC(N)=O)NC(=O)[C@H](CC(N)=O)NC(=O)[C@H](CCCNC(=N)N)NC(=O)[C@H](CC(N)=O)NC(=O)[C@H](C)NC(=O)[C@H](C)N)C(=O)N[C@@H](CCCNC(N)=O)C(=O)N[C@@H](CCC(N)=O)C(=O)N[C@@H](C)C(=O)N[C@@H](CCCCN)C(=O)N[C@@H](CCC(N)=O)C(=O)N[C@@H](CCC(=O)O)C(=O)O [AANRNNDALXQAKQE] (H-AANRNNDAL[Cit]QAKQE-OH; N-terminus and C-terminus assumed)
IC50 (HLA-DRB1*04:01; [1]): > 40000 nM
DRB1*04:01 binding capacity, WT/cit ratio (HLA-DRB1*04:01): 1.0
IC50 (HLA-DRB1*01:01; [2]): > 40000 nM
DRB1*01:01 binding capacity, WT/cit ratio (HLA-DRB1*01:01): 1.0

CC(C)C[C@H](NC(=O)[C@H](C)NC(=O)[C@H](CC(=O)O)NC(=O)[C@@H](N)CC(N)=O)C(=O)N[C@@H](CCCNC(=N)N)C(=O)N[C@@H](CCC(N)=O)C(=O)N[C@@H](C)C(=O)N[C@@H](CCCCN)C(=O)N[C@@H](CCC(N)=O)C(=O)N[C@@H](CCC(=O)O)C(=O)N[C@@H](CO)C(=O)N[C@H](C(=O)N[C@@H](CCC(=O)O)C(=O)N[C@@H](Cc1ccc(O)cc1)C(=O)N[C@@H](CCCNC(N)=O)C(=O)O)[C@@H](C)O [NDALRQAKQESTEYX] (H-NDALRQAKQESTEY[Cit]-OH)
IC50 (HLA-DRB1*04:01; [3]): 39500 nM
IC50 (HLA-DRB1*01:01; [4]): 34200 nM

C[C@H](NC(=O)CNC(=O)[C@@H]1CCCN1C(=O)[C@H](CO)NC(=O)CNC(=O)[C@H](CCC(=O)O)NC(=O)[C@@H](N)CCCNC(=N)N)C(=O)N[C@@H](CC(=O)O)C(=O)NCC(=O)N1CCC[C@H]1C(=O)N1CCC[C@H]1C(=O)NCC(=O)N[C@@H](CCCNC(N)=O)C(=O)N[C@@H](CC(=O)O)C(=O)NCC(=O)O [REGSPGADGPPGXDG] (H-REGSPGADGPPG[Cit]DG-OH; N-terminus and C-terminus assumed)
IC50 (HLA-DRB1*04:01; [3]): > 40000 nM
DRB1*04:01 binding capacity, WT/cit ratio (HLA-DRB1*04:01; [5]): 1.0
IC50 (HLA-DRB1*01:01; [4]): > 40000 nM
DRB1*01:01 binding capacity, WT/cit ratio (HLA-DRB1*01:01; [5]): 1.0

ERGRTGPAGAAGARG [Collagen 331 WT]
IC50 (HLA-DRB1*04:01; [6]): > 40000 nM
IC50 (HLA-DRB1*01:01; [7]): 1610 nM

GADGPPGRDGAAGVK [Collagen 1041 WT]
IC50 (HLA-DRB1*04:01; [6]): > 40000 nM
IC50 (HLA-DRB1*01:01; [7]): > 40000 nM

TIGRLQDEIQNMKEE [Vimentin 361 WT]
IC50 (HLA-DRB1*04:01; [6]): 21800 nM
IC50 (HLA-DRB1*01:01; [7]): 13700 nM

LAGQRGIVGLPGQRG [Collagen 976 WT]
IC50 (HLA-DRB1*04:01; [6]): 9280 nM
IC50 (HLA-DRB1*01:01; [7]): 20 nM

VTTSTRTYSLGSALR [Vimentin 31 WT]
IC50 (HLA-DRB1*04:01; [8]): 1220 nM
IC50 (HLA-DRB1*01:01; [9]): 5 nM

CC(C)C[C@H](NC(=O)[C@H](C)NC(=O)[C@H](CC(=O)O)NC(=O)[C@@H](N)CC(N)=O)C(=O)N[C@@H](CCCNC(N)=O)C(=O)N[C@@H](CCC(N)=O)C(=O)N[C@@H](C)C(=O)N[C@@H](CCCCN)C(=O)N[C@@H](CCC(N)=O)C(=O)N[C@@H](CCC(=O)O)C(=O)N[C@@H](CO)C(=O)N[C@H](C(=O)N[C@@H](CCC(=O)O)C(=O)N[C@@H](Cc1ccc(O)cc1)C(=O)N[C@@H](CCCNC(=N)N)C(=O)O)[C@@H](C)O [NDALXQAKQESTEYR] (H-NDAL[Cit]QAKQESTEYR-OH)
IC50 (HLA-DRB1*04:01; [3]): > 40000 nM
IC50 (HLA-DRB1*01:01; [4]): 22600 nM

C[C@H](NC(=O)[C@@H]1CCCN1C(=O)CNC(=O)[C@H](CCC(N)=O)NC(=O)[C@@H]1CCCN1C(=O)CNC(=O)[C@@H]1CCCN1C(=O)[C@@H]1CCCN1)C(=O)NCC(=O)N[C@@H](CCC(=O)O)C(=O)N[C@@H](CCC(N)=O)C(=O)NCC(=O)N1CCC[C@H]1C(=O)N[C@@H](CCCNC(N)=O)C(=O)NCC(=O)O [PPGPQGPAGEQGPXG] (H-PPGPQGPAGEQGP[Cit]G-OH)
IC50 (HLA-DRB1*04:01; citrullinated 15-mer peptide (X = citrulline), […], read-out: DRB1*04:01 binding capacity, Cit peptide (IC50 nM)): > 40000 nM
IC50 (HLA-DRB1*01:01; citrullinated 15-mer peptide (X = citrulline), […], read-out: DRB1*01:01 binding capacity, Cit peptide (IC50 nM)): 35600 nM

CSCC[C@H](NC(=O)[C@H](CCCNC(N)=O)NC(=O)[C@H](CCCNC(=N)N)NC(=O)[C@@H](N)Cc1ccc(O)cc1)C(=O)N[C@@H](Cc1ccccc1)C(=O)NCC(=O)NCC(=O)N1CCC[C@H]1C(=O)NCC(=O)N[C@H](C(=O)N[C@@H](C)C(=O)N[C@@H](CO)C(=O)N[C@@H](CCCNC(=N)N)C(=O)N1CCC[C@H]1C(=O)N[C@@H](CO)C(=O)O)[C@@H](C)O [YRXMFGGPGTASRPS] (H-YR[Cit]MFGGPGTASRPS-OH)
IC50 (HLA-DRB1*04:01; [1]): 15800 nM
IC50 (HLA-DRB1*01:01; [2]): 512 nM

CC[C@H](C)[C@H](NC(=O)[C@H](CCC(=O)O)NC(=O)[C@@H](NC(=O)[C@H](CC(=O)O)NC(=O)[C@H](CC(N)=O)NC(=O)[C@@H](N)CO)C(C)C)C(=O)N[C@@H](CCCNC(=N)N)C(=O)N[C@@H](C)C(=O)N[C@@H](CCC(=O)O)C(=O)NCC(=O)N[C@@H](CC(N)=O)C(=O)N[C@@H](CO)C(=O)N[C@@H](CCCNC(N)=O)C(=O)N[C@@H](Cc1ccccc1)C(=O)N[C@H](C(=O)O)[C@@H](C)O [SNDVEIRAEGNSXFT] (H-SNDVEIRAEGNS[Cit]FT-OH)
IC50 (HLA-DRB1*04:01; [10]): 178 nM
IC50 (HLA-DRB1*01:01; [11]): 92 nM

CSCC[C@H](NC(=O)[C@H](Cc1ccc(O)cc1)NC(=O)[C@H](CCC(N)=O)NC(=O)[C@@H](N)CC(C)C)C(=O)N[C@@H](CCCNC(=N)N)C(=O)N[C@@H](C)C(=O)N[C@@H](CC(=O)O)C(=O)N[C@@H](CCC(N)=O)C(=O)N[C@@H](C)C(=O)N[C@@H](C)C(=O)NCC(=O)NCC(=O)N[C@@H](CC(C)C)C(=O)N[C@@H](CCCNC(N)=O)C(=O)N[C@@H](CCC(N)=O)C(=O)O [LQYMRADQAAGGLXQ] (H-LQYMRADQAAGGL[Cit]Q-OH)
IC50 (HLA-DRB1*04:01; [10]): 83 nM
IC50 (HLA-DRB1*01:01; [11]): 64 nM

CC(C)C[C@H](NC(=O)[C@H](C)NC(=O)[C@H](CO)NC(=O)CNC(=O)[C@H](CC(C)C)NC(=O)[C@H](CO)NC(=O)[C@H](Cc1ccc(O)cc1)NC(=O)[C@@H](NC(=O)[C@@H](N)CCCNC(=N)N)[C@@H](C)O)C(=O)N[C@@H](CCCNC(=N)N)C(=O)N1CCC[C@H]1C(=O)N[C@@H](CO)C(=O)N[C@H](C(=O)N[C@@H](CO)C(=O)N[C@@H](CCCNC(N)=O)C(=O)O)[C@@H](C)O [RTYSLGSALRPSTSX] (H-RTYSLGSALRPSTS[Cit]-OH)
IC50 (HLA-DRB1*04:01; [1]): 1090 nM
IC50 (HLA-DRB1*01:01; [2]): 21 nM

PTGKQGDRGEAGAQG [Collagen 1081 WT]
IC50 (HLA-DRB1*04:01; [6]): > 40000 nM
IC50 (HLA-DRB1*01:01; [7]): 31000 nM

CC[C@H](C)[C@H](NC(=O)[C@H](CCC(=O)O)NC(=O)[C@H](CC(=O)O)NC(=O)[C@H](CCC(N)=O)NC(=O)[C@H](CC(C)C)NC(=O)[C@H](CCCNC(N)=O)NC(=O)CNC(=O)[C@@H](NC(=O)[C@@H](N)[C@@H](C)O)[C@@H](C)CC)C(=O)N[C@@H](CCC(N)=O)C(=O)N[C@@H](CC(N)=O)C(=O)N[C@@H](CCSC)C(=O)N[C@@H](CCCCN)C(=O)N[C@@H](CCC(=O)O)C(=O)N[C@@H](CCC(=O)O)C(=O)O [TIGXLQDEIQNMKEE] (H-TIG[Cit]LQDEIQNMKEE-OH)
IC50 (HLA-DRB1*04:01; [3]): 31800 nM
IC50 (HLA-DRB1*01:01; [4]): > 40000 nM

CC[C@H](C)[C@H](N)C(=O)N[C@@H](CO)C(=O)N[C@@H](CC(C)C)C(=O)N1CCC[C@H]1C(=O)N[C@@H](CC(C)C)C(=O)N1CCC[C@H]1C(=O)N[C@@H](CC(N)=O)C(=O)N[C@@H](Cc1ccccc1)C(=O)N[C@@H](CO)C(=O)N[C@@H](CO)C(=O)N[C@@H](CC(C)C)C(=O)N[C@@H](CC(N)=O)C(=O)N[C@@H](CC(C)C)C(=O)N[C@@H](CCCNC(N)=O)C(=O)N[C@@H](CCC(=O)O)C(=O)O [ISLPLPNFSSLNLXE]
IC50 (HLA-DRB1*04:01; [3]): 4480 nM
IC50 (HLA-DRB1*01:01; [4]): 309 nM

TVETRDGQVINETSQ [Vimentin 446 WT]
IC50 (HLA-DRB1*04:01; [8]): 9590 nM
IC50 (HLA-DRB1*01:01; [9]): 17900 nM

VSSSSYRRMFGGPGT [Vimentin 6 WT]
IC50 (HLA-DRB1*04:01; [8]): 725 nM
IC50 (HLA-DRB1*01:01; [9]): 25 nM

CC(C)[C@H](NC(=O)[C@H](CC(=O)O)NC(=O)CNC(=O)[C@H](CCCNC(N)=O)NC(=O)[C@@H](N)CC(=O)O)C(=O)NCC(=O)N[C@@H](CCC(=O)O)C(=O)N[C@@H](CCCCN)C(=O)NCC(=O)N1CCC[C@H]1C(=O)N[C@@H](CCC(=O)O)C(=O)NCC(=O)N[C@@H](C)C(=O)N1CCC[C@H]1C(=O)NCC(=O)O [DXGDVGEKGPEGAPG] (H-D[Cit]GDVGEKGPEGAPG-OH)
IC50 (HLA-DRB1*04:01; [3]): 33300 nM
IC50 (HLA-DRB1*01:01; [4]): 2270 nM
